Patent US8741892B2, “Compounds” (Boehringer Ingelheim International GmbH, priority 2011, dated 2014)

molecular target: T1, human recombinant mGluR5 (Homo sapiens, UniProt P41594); assay: positive modulation of mGluR5, calcium based FLIPR assay; conditions: HEK 293 cell line expressing human recombinant mGluR5; EC50 of the modulation from peak Ca fluorescence signal after glutamate at approx. 5% basal stimulation
T1 construct: expressed in transfected cells; host or cells: HEK 293
Experimental: The positive modulation of mGluR5 is measured in a HEK 293 cell line expressing human recombinant mGluR5 and is detected with calcium based FLIPR assay. The cells are cultured with DMEM supplemented with 10% FCS, 2 μg/mL tetracycline, 100 μg/mL hygromycin and 500 μg/mL geneticin. The cell culture media is exchanged for tetracycline-free cell culture media 3-7 days before the assay. One day before the assay the cell culture medium is exchanged to DMEM without glutamine and phenol red and supplemented with 10% FCS, 100 μg/mL hygromycin and 500 μg/mL geneticin. On the assay day, the medium of the subconfluent cultures is removed and the cells are detached by addition of 2.5 ml EDTA (0.02%) per 175 cm2 culture flask for 1 minute. The cells are resuspend in Ringer solution (140 mM NaCl, 5 mM KCl, 2.5 mM CaCl2, 1.5 mM MgCl2, 5 mM Glucose, 10 mM Hepes; adjusted to pH 7.4 with NaOH), pooled and Ringer solution added to adjust the volume to 50 mL. The cell suspension is centrifuged for […] at 1500 U/min (425 g). The supernatant is removed and the cells washed a second time with 50 ml fresh Ringer solution and centrifuged again as before. The supernatant is again removed and the pellet resuspended in Ringer solution to 1,000,000 cells/ml (1×10^6 cells/mL). The cells are plated onto BD BioCoat Poly-D-Lysine 384 well plates (20.000 cells/well; 20 μl/well). The lid covered plates are then incubated until use at 37° C./10% CO2. For dye loading, 20 μl of Calcium-4 assay kit solution (prepared according to the manufacturer's description in Ringer solution) are added to the cells and the plates are incubated for […] 37° C. and then […] at room temperature.
Controls, Compound Dilution and Assay Execution:
Each assay plate contained wells with “high” and “low” controls:
Low controls 1% DMSO/ringer solution+basal glutamate activation (defined as 100% CTL).
High controls 10 μM CDPPB+basal glutamate activation (defined as 200% CTL).
Test compounds are dissolved and diluted in DMSO to 100-fold the desired concentrations. In a second step, the compounds are diluted in Ringer solution such that the compounds are 4-fold more concentrated than the desired final assay concentration. The final DMSO concentration was 1%.
20 μl of each compound solution are then transferred to the assay plate and the Ca2+ kinetic is measured to determine any intrinsic compound activity. After 5 mM incubation in the FLIPR device, the second stimulation with 20 μl of glutamate in Ringer solution (glutamate concentration adjusted to approximately 5% basal stimulation of the maximal possible glutamate effect) is added and the kinetic Ca2+ response of the wells was measured for the modulation effect.
The peak height of the Ca release related fluorescence signal (9-66) is used for the EC50. The EC50 of the modulation is calculated over a nonlinear regression with GraphPad Prism (Table 1).

T1 sequence (P41594 21-1212): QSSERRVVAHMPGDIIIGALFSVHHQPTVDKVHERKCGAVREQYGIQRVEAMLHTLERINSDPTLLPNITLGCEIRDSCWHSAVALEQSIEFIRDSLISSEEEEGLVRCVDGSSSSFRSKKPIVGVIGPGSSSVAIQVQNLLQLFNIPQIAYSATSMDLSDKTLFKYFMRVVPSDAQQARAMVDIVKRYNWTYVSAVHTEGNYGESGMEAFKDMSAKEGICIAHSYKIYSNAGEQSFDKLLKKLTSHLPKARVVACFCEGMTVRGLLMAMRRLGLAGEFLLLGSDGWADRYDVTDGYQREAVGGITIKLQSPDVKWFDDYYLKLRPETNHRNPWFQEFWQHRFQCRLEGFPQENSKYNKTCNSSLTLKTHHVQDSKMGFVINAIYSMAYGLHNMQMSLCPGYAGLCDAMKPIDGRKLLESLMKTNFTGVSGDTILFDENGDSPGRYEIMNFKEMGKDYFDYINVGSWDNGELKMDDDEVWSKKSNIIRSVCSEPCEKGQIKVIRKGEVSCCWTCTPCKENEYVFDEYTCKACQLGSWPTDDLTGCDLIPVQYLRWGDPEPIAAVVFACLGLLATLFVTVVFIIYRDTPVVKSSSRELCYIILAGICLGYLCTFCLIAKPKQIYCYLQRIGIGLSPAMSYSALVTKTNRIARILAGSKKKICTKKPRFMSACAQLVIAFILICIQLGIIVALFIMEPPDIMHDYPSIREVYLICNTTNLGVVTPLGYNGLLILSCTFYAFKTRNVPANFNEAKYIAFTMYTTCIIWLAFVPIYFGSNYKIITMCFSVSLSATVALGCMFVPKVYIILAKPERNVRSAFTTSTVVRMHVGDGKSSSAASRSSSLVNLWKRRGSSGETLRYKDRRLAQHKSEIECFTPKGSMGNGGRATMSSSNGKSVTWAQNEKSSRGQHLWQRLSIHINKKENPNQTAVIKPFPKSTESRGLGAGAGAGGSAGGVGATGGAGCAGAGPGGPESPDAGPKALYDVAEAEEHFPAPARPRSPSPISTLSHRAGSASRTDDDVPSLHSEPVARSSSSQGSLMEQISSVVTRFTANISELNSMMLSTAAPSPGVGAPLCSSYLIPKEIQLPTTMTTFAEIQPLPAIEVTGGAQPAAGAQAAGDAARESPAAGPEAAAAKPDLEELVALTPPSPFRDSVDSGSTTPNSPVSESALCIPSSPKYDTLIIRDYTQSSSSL

Row | Compound | EC50
1 | O=C(Cn1nc(-c2ccccc2)cc1-c1ccccc1)N1CCN(c2nc3ccccc3o2)CC1 [Example 7.02.009] | 220 nM
2 | Cc1nc2c(s1)CN(C(=O)Cn1nc(-c3ccccc3)cc1-c1ccccc1)C2 [Example 7.01.005] | 381 nM
3 | COc1ccc(-c2cc(C(C)C)n(CC(=O)N3Cc4ccc(OC)cc4C3)n2)cc1 [Example 7.02.040] | 1700 nM
4 | Cc1cc(-c2cc(-c3ccccc3)n(CC(=O)N3CCc4cccnc4CC3)n2)ccc1F [Example 7.02.131] | 8 nM
5 | Cc1nc2c(o1)CN(C(=O)Cn1nc(-c3ccccc3)cc1-c1ccccc1)CC2 [Example 7.01.002] | 592 nM
6 | COc1ccc(-c2cc(C(C)C)n(CC(=O)N3CCc4cc(OC)ccc4C3)n2)cc1 [Example 7.02.039] | 915 nM
7 | COc1cc2c(cc1OC)CCN(C(=O)Cn1nc(-c3ccc(F)c(C)c3)cc1-c1ccccc1)CC2 [Example 7.01.079] | 447 nM
8 | Cc1cc(-c2cc(-c3ccccc3)n(CC(=O)N3CCc4nc5ccccc5c(C)c4CC3)n2)ccc1F [Example 7.01.084] | 34 nM
9 | CCc1cc(-c2ccc(C)c(C)c2)nn1CC(=O)N1CC=C(c2cc(OC)ncn2)CC1 [Example 7.02.078] | 232 nM
10 | CCCc1cc(-c2ccc(F)c(C)c2)nn1CC(=O)N1CCC(c2ncc(OC)cn2)CC1 [Example 7.02.069] | 187 nM
11 | N#Cc1ccc2c(c1)CN(C(=O)Cn1nc(-c3ccccc3)cc1-c1ccccc1)CC2 [Example 7.01.031] | 1870 nM
12 | COC(=O)c1ccc2c(c1)CCN(C(=O)Cn1nc(-c3ccc(F)c(C)c3)cc1-c1ccccc1)CC2 [Example 7.01.088] | 29 nM
13 | COC(=O)c1ccc2c(c1)CCN(C(=O)Cn1nc(-c3ccccc3)cc1-c1ccccc1)C2 [Example 7.01.022] | 511 nM
14 | Nc1nc2c(s1)CCN(C(=O)Cn1nc(-c3ccc(F)cn3)cc1-c1ccc(F)cc1)CC2 [Example 7.02.060] | 760 nM
15 | O=C(Cn1nc(-c2ccccc2)cc1-c1ccccc1)N1CCN(c2cccc(Br)c2)C(=O)C1 [Example 7.01.013] | 617 nM
16 | Cc1nc2c(s1)CN(C(=O)Cn1nc(-c3ccc(F)c(C)c3)cc1-c1ccccc1)C2 [Example 7.02.020] | 21 nM
17 | COc1ccc(-c2cc(C(C)C)n(CC(=O)N3CCc4nc(C)oc4C3)n2)cc1 [Example 7.02.043] | 1740 nM
18 | COc1ccc(-c2cc(C(C)C)n(CC(=O)N3Cc4nc(C)sc4C3)n2)cc1 [Example 7.02.045] | 1410 nM

The next lines start with the values.

Row | EC50 | Compound
19 | 122 nM | CCc1cc(-c2ccc(F)c(C)c2)nn1CC(=O)N1CCc2nc(C)sc2C1 [Example 7.01.067]
20 | 22 nM | Cc1nc2c(s1)CN(C(=O)Cn1nc(-c3ccc(F)c(C)c3)cc1-c1ccccc1)CC2 [Example 7.01.089]
21 | 132 nM | CCc1cc(-c2cccc(C#N)c2)nn1CC(=O)N1CCc2nc(C)sc2CC1 [Example 7.02.184]
22 | 183 nM | Cc1cc(-c2cc(C3CCCCC3)n(CC(=O)N3CCc4nc(N)sc4CC3)n2)ccc1F [Example 7.02.050]
23 | 65 nM | CCc1cc(-c2cccc(C#N)c2)nn1CC(=O)N1CC=C(c2ncc(C)o2)CC1 [Example 7.02.182]
24 | 15 nM | Cc1nc2c(s1)CCN(C(=O)Cn1nc(-c3ccc(F)c(C)c3)cc1-c1ccccc1)CC2 [Example 7.02.015]
25 | 156 nM | CCc1cccc(-c2cc(CC)n(CC(=O)N3CCc4nc(C)sc4CC3)n2)c1 [Example 7.02.129]
26 | 73 nM | CCc1cc(-c2cccc(C)c2)nn1CC(=O)N1CCc2nc(C)sc2CC1 [Example 7.02.084]
27 | 61 nM | CCc1cc(-c2cccc(Cl)c2)nn1CC(=O)N1CCc2nc(C)sc2CC1 [Example 7.02.109]
28 | 251 nM | Cc1nc2c(s1)CCN(C(=O)Cn1nc(-c3ccc(F)cc3)cc1C(C)C)CC2 [Example 7.02.072]
29 | 276 nM | CCc1cc(-c2cc(C)c(F)c(C)c2)nn1CC(=O)N1CCc2nc(N)sc2CC1 [Example 7.02.133]
30 | 329 nM | CCc1cc(-c2ccc(F)cc2)nn1CC(=O)N1CCc2nc(C)sc2CC1 [Example 7.02.029]
